In US7629135B2, “Toll-like receptor agonists and antagonists and methods of use thereof” (The Board of Trustees of the University of Illinois, priority 2006, dated 2009):

Columns and labels:
TLR2-HeLa cells = experiment: MAP kinase phosphorylation and IκBα degradation in TLR2-HeLa cells (Western blotting); format: cell-based, human; conditions: mock-transfected HeLa cells, 10 min; SAA 1 μM, Pam3CSK4 1 μg/ml
Method: FIG. 8 is a series of protein gels and corresponding Western blotting graphs showing that SAA-induced TLR2-dependent signaling in transfected cells. Serum-starved TLR2-HeLa and mock-transfected HeLa cells were stimulated with SAA (1 μM) or Pam3CSK4 (1 μg/ml) for the indicated time. The phosphorylation level of ERK1/2 (A), p38 (B) and JNK (C) was detected by Western blotting using antibodies recognizing the phosphorylated forms of the MAP kinases (blots). (D) The level of cytoplasmic IκB ? was detected by Western blotting using an anti-IκB ? antibody and the β-actin levels in the corresponding samples were shown as loading controls. […] A representative set of data, from 3 repeating experiments, is presented.

TLR2:Fc fusion protein = biological target: T1, TLR2:Fc fusion protein (Homo sapiens, UniProt O60603); experiment: SAA-TLR2 interaction, ELISA-like binding assay; conditions: 0.0625 to 8 μg/ml ligand coated, 2 μg/ml TLR2:Fc
T1 construct: measured in an ELISA-like assay using a TLR2 extracellular domain:Fc fragment fusion protein; made in house; host or cells: CHO cells (pFuse-Fc vector, InvivoGen), purified from culture supernatant on protein A
Excerpt: Another example of a method for screening antagonists that disrupt the SAA/TLR2 interaction involves a binding assay that includes a TLR2 ectodomain (extracellular domain) fused to an Fc fragment of immunoglobulin (TLR2:Fc), such as the assay used in FIG. 9B. This assay is typically used as a follow-up or secondary assay to that assay described above. In other words, any compounds collected from the assay described above are subjected to the TLR2:Fc-based binding assay to confirm that the antagonistic effect is on the disruption of SAA-TLR2 binding. This method is generally carried out as follows and is also described in the Examples. A TLR2:Fc fusion protein is generated such that the N-terminal 588 amino acids of human TLR2 are fused in frame to the Fc portion of mouse IgG2a. The cDNA encoding for the resulting chimeric protein is cloned in pFuse-Fc vector (InvivoGen), and stably transfected into CHO cells. […] Absorbance at 450 nm is measured on a SpectraMax 340 plate reader (Molecular Devices).
Assays for SAA-TLR2 interaction: The TL2:Fc fusion protein was generated such that the N-terminal 588 amino acids of human TLR2 protein were fused in frame with the Fc portion of mouse IgG2a. […] Absorbance at 450 nm was measured on a SpectraMax 340 plate reader (Molecular Devices). […]

T1 sequence (O60603 21-588 limits assumed): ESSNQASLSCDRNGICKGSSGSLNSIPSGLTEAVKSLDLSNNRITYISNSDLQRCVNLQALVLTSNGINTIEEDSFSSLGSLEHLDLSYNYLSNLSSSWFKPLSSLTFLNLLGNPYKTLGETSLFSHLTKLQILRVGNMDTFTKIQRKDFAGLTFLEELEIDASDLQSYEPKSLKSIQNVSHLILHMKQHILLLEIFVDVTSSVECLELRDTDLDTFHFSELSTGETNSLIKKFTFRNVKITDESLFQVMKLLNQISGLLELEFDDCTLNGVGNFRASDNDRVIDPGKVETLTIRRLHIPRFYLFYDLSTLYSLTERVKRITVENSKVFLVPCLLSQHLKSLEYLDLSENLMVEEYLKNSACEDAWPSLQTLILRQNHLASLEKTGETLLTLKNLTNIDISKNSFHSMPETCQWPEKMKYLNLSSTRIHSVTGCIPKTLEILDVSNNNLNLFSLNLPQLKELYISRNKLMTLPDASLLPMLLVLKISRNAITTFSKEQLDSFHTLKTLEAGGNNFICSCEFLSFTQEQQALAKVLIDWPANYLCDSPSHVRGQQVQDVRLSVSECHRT

Pam3CSK4 [reference compound]
ERK1/2 phosphorylation in mock-transfected cells (TLR2-HeLa cells): not | binding to TLR2:Fc fusion protein (TLR2:Fc fusion protein): directly bind to the ectodomain
